# Measurements from PMC12794274, “Therapeutic potential of Sheng-Xian-Tang in doxorubicin-induced chronic heart failure by regulation of phenylalanine metabolism disruption” (Chinese Medicine, 2026).
# pKd: −log10 of the molar value. Like-named read-outs stand apart in the source and are kept apart here.
# How the values were obtained:
# [1] = target: Phenylalanine hydroxylase (PAH) protein (Homo sapiens, UniProt P00439); experiment: Surface Plasmon Resonance (SPR) analysis, Biacore T200; type: binding; settings: PAH immobilized on CM5 chip, read-out: dissociation constant (Kd)
# Sequence of Phenylalanine hydroxylase (PAH) protein (P00439 whole entry): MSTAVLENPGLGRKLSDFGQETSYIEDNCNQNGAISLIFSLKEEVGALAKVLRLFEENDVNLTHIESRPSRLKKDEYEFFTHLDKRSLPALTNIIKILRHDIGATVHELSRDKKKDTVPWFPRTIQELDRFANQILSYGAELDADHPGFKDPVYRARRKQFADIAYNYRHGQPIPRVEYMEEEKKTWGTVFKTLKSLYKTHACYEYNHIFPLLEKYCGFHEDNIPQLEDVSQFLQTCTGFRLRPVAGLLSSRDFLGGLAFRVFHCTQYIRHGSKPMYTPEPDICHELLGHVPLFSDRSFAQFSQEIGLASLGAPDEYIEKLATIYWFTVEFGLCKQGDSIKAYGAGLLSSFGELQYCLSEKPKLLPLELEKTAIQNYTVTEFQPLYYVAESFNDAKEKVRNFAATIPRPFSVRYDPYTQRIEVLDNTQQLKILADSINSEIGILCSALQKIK
# Protocol: SPR assays were conducted using a Biacore T200 system (GE Healthcare Life Sciences, USA). Phenylalanine hydroxylase (PAH) protein was immobilized on CM5 sensor chips using an amine-coupling kit (BR100050, GE Healthcare) following standard procedures. […] Samples were injected over reference and PAH-immobilized flow cells at a flow rate of 30 μL/min, with 120 s contact time and 120 s dissociation time. Kinetic parameters were calculated using Biacore T200 evaluation software.
# [2] = tested on: PAH activity in AML12 cells; type: cell-based; settings: BH4 10 μM; timosaponin B-II, neomangiferin, anemarrhenasaponin I 5, 10, 20 μM; timosaponin AIII 0.1, 0.2, 0.5 μM
# Protocol: (§1) Serum biochemical parameters including brain natriuretic peptide (BNP), creatine kinase (CK), lactate dehydrogenase (LDH), alanine aminotransferase (ALT), and aspartate aminotransferase (AST) were measured using commercial ELISA kits (Nanjing Jiancheng Bioengineering Institute, Nanjing, China) according to the manufacturer’s instructions. Superoxide dismutase (SOD), and malondialdehyde (MDA) levels in liver and heart tissues were measured using assay kits from Aifang Biotechnology (Changsha, China). Phenylalanine and tyrosine concentrations in the cell were determined using an ELISA kit from Abmart (Shanghai, China).
# (§2) Mouse hepatocellular cell lines (AML12), purchased from the Shanghai Cell Bank of Chinese Academy of Sciences (Shanghai, China), were cultured in Dulbecco’s Modified Eagle Medium (DMEM) supplemented with 10% fetal bovine serum (FBS) and 2 mM L-glutamine and 1% pyruvate and maintained at 37 °C in a […], 5% CO2 incubator. Cells were seeded at a density of 5 × 10^5 cells/well in 6-well plates. […] Cells’ survival rate was detected by Cell Counting Kit-8 (CCK8) Reagents (Thermo Scientific, Singapore).
# [3] = tested on: AML12 cells; experiment: AML12 cell viability (CCK8); type: cell-based
# Protocol: as §2
# [4] = tested on: cardiac tissues of DOX-induced CHF rats; experiment: Heart histopathology (H&E, Masson) and TUNEL apoptosis detection; type: in vivo, rat; settings: experiment II, co-treatment vs DOX group
# Protocol: Cardiac tissues were fixed in 4% paraformaldehyde, embedded in paraffin, and sectioned at 4–5 μm thickness. Hematoxylin and eosin (H&E) staining was performed to assess histopathological changes, while Masson’s trichrome staining was used to evaluate cardiac fibrosis. Apoptosis in cardiac tissues was detected using a TUNEL assay kit (C1088, Beyotime, Shanghai, China).
# [5] = tested on: DOX-induced CHF rats; experiment: Oxidative stress in heart and liver tissue (SOD, MDA, ROS, PTGS2); type: in vivo, rat; settings: experiment II, co-treatment with DOX
# Protocol: Immunofluorescence staining was performed on tissue sections to detect phenylalanine hydroxylase (PAH), prostaglandin-endoperoxide synthase 2 (PTGS2), and reactive oxygen species (ROS). Primary antibodies against PAH and PTGS2 were used, while ROS was detected using the DCFH-DA probe. Nuclei were counterstained with DAPI. Images were captured using a fluorescence microscope. Serum biochemical parameters including brain natriuretic peptide (BNP), creatine kinase (CK), lactate dehydrogenase (LDH), alanine aminotransferase (ALT), and aspartate aminotransferase (AST) were measured using commercial ELISA kits (Nanjing Jiancheng Bioengineering Institute, Nanjing, China) according to the manufacturer's instructions. Superoxide dismutase (SOD), and malondialdehyde (MDA) levels in liver and heart tissues were measured using assay kits from […] Biotechnology (Changsha, China). Phenylalanine and tyrosine concentrations in the cell were determined using an ELISA kit from Abmart (Shanghai, China).
# [6] = tested on: heart tissues; experiment: Transmission electron microscopy of heart tissue; type: in vivo, rat; settings: experiment II; DOX alone, co-treatments vs DOX
# Protocol: Freshly excised heart tissues were immediately fixed in 2.5% glutaraldehyde at 4 °C overnight. After washing with 0.1 M cacodylate trihydrate buffer, samples were post-fixed with 1% osmium tetroxide for 1 h. Tissues were then dehydrated through a graded ethanol series, incubated in acetone, and embedded in epoxy resin. Ultrathin sections were mounted on copper grids and imaged using a Hitachi HT7800 transmission electron microscope (Tokyo, Japan).
# [7] = tested on: phenylalanine metabolism; experiment: Phenylalanine and tyrosine levels in rat serum, liver and heart tissues (LC/MS); type: in vivo; settings: experiment II, DOX + phenylalanine 280 mg/kg, BH4 14 mg/kg or SXT 16 g/kg
# Protocol: Phenylalanine and tyrosine in the different rat bio-samples were analyzed by LC/MS using an Agilent 1290 Ultra high-performance liquid chromatography (UHPLC) and an Agilent 6460 triple-quadrupole tandem mass spectrometer (QQQ-MS) (Agilent Inc, USA). Data were acquired by using an Agilent Zorbax SB-C18 column (3.0 × 150 mm, 5 μm) as described previously.
# [8] = tested on: DOX-induced CHF rats; experiment: Serum biochemical parameters (BNP, CK, LDH, ALT, AST) by ELISA kits; type: in vivo, rat; settings: experiment II, co-treatment vs DOX group
# Protocol: as §1, with “manufacturer's” for “manufacturer’s”, “Aifang” left out
# [9] = tested on: phenylalanine hydroxylase (PAH); experiment: PAH expression in liver and heart (western blotting, immunofluorescence); type: in vivo, rat; settings: experiment II; DOX vs CON, co-treatments vs DOX
# Protocol: Immunofluorescence staining was performed on tissue sections to detect phenylalanine hydroxylase (PAH), prostaglandin-endoperoxide synthase 2 (PTGS2), and reactive oxygen species (ROS). Primary antibodies against PAH and PTGS2 were used, while ROS was detected using the DCFH-DA probe. Nuclei were counterstained with DAPI. Images were captured using a fluorescence microscope.
# Protein was extracted from liver or heart tissue samples (30 mg) using lysis buffer. Total protein concentration was determined using a BCA protein assay kit (Thermo Fisher Scientific, USA). Equal amounts of protein from each sample were separated on 10–12% SDS-PAGE gels and transferred to PVDF membranes. Membranes were blocked with quick blocking buffer for 30 min, then incubated with anti-PAH primary antibody (1:1000 dilution) overnight at 4 °C. After washing, membranes were incubated with a secondary antibody for 1 h at 37 °C. Protein bands were visualized using an Odyssey infrared imaging system (JS-1070, Shanghai Peiqing Science & Technology Co., Ltd, China). Band intensities were quantified using ImageJ software.
# [10] = tested on: DOX-induced chronic heart failure (CHF) rat model; experiment: Echocardiography (LVEF%, LVFS%) in DOX-induced CHF rats; type: in vivo; settings: experiment II, DOX + Phe 280 mg/kg, BH4 14 mg/kg or SXT 16 g/kg vs DOX group
# Protocol: Experiment I, 48 rats were randomly divided into six groups: (1) the CON group; (2) the DOX group; (3) the DOX + enalapril (ENP, positive control, 1.8 mg/kg) group; (4) the DOX + SXT at low dose group (4 g/kg); (5) the DOX + SXT at middle dose group (8 g/kg); and […] the DOX + SXT at high dose group (16 g/kg). Except those rats in the CON group, the remaining rats received DOX at a 2.5 mg/kg per injection to a cumulative dose of 15 mg/kg. The dose of SXT for the low-dose group was set at 4 g/kg, based on the minimum human clinical daily dose (48.5 g, Table S2) converted to an equivalent rat dose using body surface area normalization (48.5 g/70 kg × 6.3 ≈ 4.4 g/kg, rounded to 4 g/kg). To evaluate a clear dose–response relationship, the medium and high doses were established at 8 g/kg and 16 g/kg, respectively, corresponding to 2 fold and 4 fold the low dose. This gradient dosing strategy is consistent with the Technical Guidelines for Pharmacodynamic Studies of Traditional Chinese Medicine and the Technical Guidelines for General Pharmacology Studies of Traditional Chinese Medicine and Natural Drugs, and is further supported by our previous study on the effective dose range of SXT in a rat model of doxorubicin-induced chronic heart failure. Heart function was monitored by echocardiography analysis at day 39, and the CHF model was considered to be successfully established when the left ventricular ejection fraction (LVEF%) values were reduced to 50%. Urinary samples were collected at five time points (0, 10, 20, 30, and 39 d), while fecal samples were collected before the rats were euthanized. Subsequently, the rats were anesthetized, and blood samples and heart and liver tissues were collected. All bio-samples were stored at − 80 °C until analysis.
# Experiment II was conducted to specifically confirm the exacerbated cardiac abnormality of phenylalanine in the DOX-induced CHF rats. […] Heart function was detected as in the experiment I.
# Echocardiographic (ECG) measurements were performed using M-mode tracings and continuous Doppler with a Vevo 2100 system (Visual Sonics, Toronto, ON, Canada). Rats were anesthetized with isoflurane prior to imaging. Cardiac function indices including left ventricular ejection fraction (LVEF%) and left ventricular fractional shortening (LVFS%) were measured and recorded.
smiles,measurement,setting,value
CC(C)CCC1(O)O[C@H]2[C@H](O)[C@H]3[C@@H]4CC[C@@H]5C[C@@H](O[C@@H]6O[C@H](CO)[C@H](O)[C@H](O)[C@H]6O[C@@H]6O[C@H](CO)[C@@H](O)[C@H](O)[C@H]6O)CC[C@]5(C)[C@H]4CC[C@]3(C)[C@H]2[C@@H]1C (stereo partly drawn) [Anemarrhenasaponin I],pKd,[1],> 5.00
same,phenylalanine levels in AML12 cells increased by DOX,[2],significantly reduce
same,non-cytoxic concentration,[3]; AML12 cells,5 to 20 µM
CC(C)(O)[C@@H]1CC[C@](C)([C@H]2[C@@H](O)C[C@@]3(C)[C@@H]4C[C@H](O[C@@H]5O[C@H](CO)[C@@H](O)[C@H](O)[C@H]5O)[C@H]5C(C)(C)[C@@H](O[C@@H]6OC[C@@H](O)[C@H](O)[C@H]6O)CC[C@@]56C[C@@]46CC[C@]23C)O1 [Astragaloside IV],non-cytoxic concentration,[3]; AML12 cells,5 to 20 µM
O=C(O)CCCCCCCC(=O)O [Azelaic acid],non-cytoxic concentration,[3]; mouse,5 to 20 µM
"C[C@H](O)[C@H](O)[C@H]1CNc2nc(N)[nH]c(=O)c2N1 [BH4, tetrahydrobiopterin]",DOX-induced cardiac injury and collagen accumulation (H&E and Masson),[4],ameliorated
same,ROS production and PTGS2 expression in the heart,[5],effectively attenuated
same,mitochondrial ultrastructure of heart (electron microscopy),[6],reversed
same,serum phenylalanine concentration,[7],46.9791 µM
same,pKd,[1],4.97
same,"DOX-induced increases in serum levels of BNP, CK, LDH, ALT and AST",[8],significantly inhibited
same,phenylalanine levels in AML12 cells increased by DOX,[2],markedly decreased
same,PAH expression in heart tissue,[9],decreased
same,PAH expression in liver tissue,[9],increased
same,non-cytoxic concentration,[3]; mouse,5 to 20 µM
same,LVEF and LVFS / DOX-induced cardiac dysfunction,[10],partially alleviated
COc1ccc(-c2coc3cc(O[C@@H]4O[C@H](CO)[C@@H](O)[C@H](O)[C@H]4O)ccc3c2=O)cc1O [Calycosin-7-O-β-D-glucoside],non-cytoxic concentration,[3],5 to 20 µM
COc1ccc(-c2coc3cc(O)ccc3c2=O)cc1O [Calycosin],non-cytoxic concentration,[3]; AML12 cells,5 to 20 µM
C[C@@H]1C[C@H]2O[C@@]3(O[C@@H]2C(C)(C)O)[C@H](O)[C@@]2(C)[C@@H]4CC[C@H]5C(C)(C)[C@@H](O[C@@H]6OC[C@@H](O)[C@H](O)[C@H]6O)CC[C@@]56C[C@@]46CC[C@]2(C)[C@@H]13 [Cimigenol xyloside],non-cytoxic concentration,[3]; AML12 cells,5 to 20 µM
O=c1c(-c2ccc(O)cc2)coc2cc(O)ccc12 [Daidzein],non-cytoxic concentration,[3]; mouse,5 to 20 µM
COc1ccc(-c2coc3cc(O)ccc3c2=O)cc1 [Formononetin],non-cytoxic concentration,[3]; AML12 cells,5 to 20 µM
COc1ccc(/C=C/C(=O)O)cc1O [Isoferulic acid],non-cytoxic concentration,[3]; AML12 cells,5 to 20 µM
COc1ccc(-c2coc3cc(O[C@@H]4O[C@H](CO)[C@@H](O)[C@H](O)[C@H]4O)ccc3c2=O)cc1 [Ononin],non-cytoxic concentration,[3]; AML12 cells,5 to 20 µM
C[C@H]1CC[C@@]2(OC1)O[C@H]1C[C@H]3[C@@H]4CC[C@@H]5C[C@@H](O[C@@H]6O[C@H](CO)[C@H](O)[C@H](O)[C@H]6O[C@@H]6O[C@H](CO)[C@@H](O)[C@H](O)[C@H]6O)CC[C@]5(C)[C@H]4CC[C@]3(C)[C@H]1[C@@H]2C [Timosaponin A-III],pKd,[1],> 5.00
same,phenylalanine levels in AML12 cells increased by DOX,[2],significantly reduce
same,non-cytoxic concentration,[3]; mouse,0.1 to 0.5 µM
C[C@H]1CC[C@@]2(OC1)O[C@H]1C[C@H]3[C@@H]4CC[C@@H]5C[C@@H](O[C@@H]6O[C@H](CO)[C@H](O)[C@H](O)[C@H]6O[C@@H]6O[C@H](CO)[C@@H](O)[C@H](O)[C@H]6O)[C@@H](O)C[C@]5(C)[C@H]4CC[C@]3(C)[C@H]1[C@@H]2C [Timosaponin A-II],non-cytoxic concentration,[3]; AML12 cells,0.1 to 0.5 µM
C[C@@H](CC[C@@]1(O)O[C@H]2C[C@H]3[C@@H]4CC[C@@H]5C[C@@H](O[C@@H]6O[C@H](CO)[C@H](O)[C@H](O)[C@H]6O[C@@H]6O[C@H](CO)[C@@H](O)[C@H](O)[C@H]6O)CC[C@]5(C)[C@H]4CC[C@]3(C)[C@H]2[C@@H]1C)CO[C@@H]1O[C@H](CO)[C@@H](O)[C@H](O)[C@H]1O [Timosaponin B-II],pKd,[1],> 5.00
same,phenylalanine levels in AML12 cells increased by DOX,[2],significantly reduce
same,non-cytoxic concentration,[3]; mouse,5 to 20 µM
